From patent publication US20260209214A1, “LSD1 MODULATORS” (RECURSION PHARMACEUTICALS, INC., priority 2022, published 2026)

biological target: Recombinant human LSD1 (Homo sapiens, UniProt O60341); assay: LSD1 inhibition assay (HTRF LSD1 Histone H3K4 mono-demethylation assay, me1->me0); assay type: biochemical; settings: 20 nM recombinant human LSD1, 95 nM H3K4(me1) biotinylated peptide, 15 min preincubation, 60 min at 25° C., read-out: LSD1 inhibition IC50 (nM range)
Summary of the method: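 Recombinant human LSD1 (20 nM) pre-incubated 15 min with 10 semi-log compound doses, then 95 nM biotinylated H3K4me1 peptide for 60 min at 25 °C in pH 8.5 Tris/NaCl buffer with 10 μM FAD, 1 mM DTT. HTRF me0-antibody read after 90 min; IC50 from 4-parameter fit.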

Row | SMILES | IC50 [nM]
1 | N#Cc1ccc(-c2cccc(CC3CNCCO3)c2-c2ocnc2F)cc1F (centres unmarked) [Example 29, 3-fluoro-2′-(4-fluoro-1,3-oxazol-5-yl)-3′-[(morpholin-2-yl)methyl]-[1,1′-biphenyl]-4-carbonitrile] | 10 to 25
2 | Cc1cc(NCC2CNCCO2)c(Cl)c(-c2ccc(C#N)c(F)c2)c1 (centres unmarked) [Example 89, 2′-chloro-3-fluoro-5′-methyl-3′-{[(morpholin-2-yl)methyl]amino}-[1,1′-biphenyl]-4-carbonitrile] | > 1000
3 | N#Cc1ccc(-c2cc(CN3[C@@H]4CC[C@H]3[C@@H](N)C4)ccc2COC(F)F)cc1F (racemic) [Example 313, 5'-{[(1S,2S,4R)-2-amino-7-azabicyclo[2.2.1]heptan-7-yl]methyl}-2'-[(difluoromethoxy)methyl]-3-fluoro-[1,1'-biphenyl]-4-carbonitrile] | 10 to 25
4 | N#Cc1ccc(-c2cccc(CN3[C@@H]4CC[C@H]3[C@@H](N)C4)c2N2CCCC2)cc1F (racemic) [Example 270, 3'-{[(1S,2S,4R)-2-amino-7-azabicyclo[2.2.1]heptan-7-yl]methyl}-3-fluoro-2'-(pyrrolidin-1-yl)-[1,1'-biphenyl]-4-carbonitrile] | 100 to 1000
5 | N#Cc1ccc(-c2cc(CN3[C@@H]4CC[C@H]3[C@@H](N)C4)ccc2OCCC(F)F)cc1F (racemic) [Example 315, 5'-{[(1S,2S,4R)-2-amino-7-azabicyclo[2.2.1]heptan-7-yl]methyl}-2'-(3,3-difluoropropoxy)-3-fluoro-[1,1'-biphenyl]-4-carbonitrile] | < 10
6 | N#Cc1ccc(-c2cc(CN3[C@@H]4CC[C@H]3[C@@H](N)C4)ccc2N2CC3(CC3)C2)cc1F (racemic) [Example 251, 5'-{[(1S,2S,4R)-2-amino-7-azabicyclo[2.2.1]heptan-7-yl]methyl}-2'-{5-azaspiro[2.3]hexan-5-yl}-3-fluoro-[1,1'-biphenyl]-4-carbonitrile] | 25 to 100
7 | CC(C)C1(O)CCN(c2ccc(CC3CNCCO3)cc2-c2ccc(C#N)c(F)c2)C1 (centres unmarked) [Example 66, 3-fluoro-2′-[3-hydroxy-3-(propan-2-yl)pyrrolidin-1-yl]-5′-[(morpholin-2-yl)methyl]-[1,1′-biphenyl]-4-carbonitrile] | 100 to 1000
8 | CC1CCN(c2ccc(CN3[C@@H]4CC[C@H]3[C@@H](N)C4)cc2-c2ccc(C#N)c(F)c2)CC1 (racemic) [Example 259, 5'-{[(1S,2S,4R)-2-amino-7-azabicyclo[2.2.1]heptan-7-yl]methyl}-3-fluoro-2'-(4-methylpiperidin-1-yl)-[1,1'-biphenyl]-4-carbonitrile] | 10 to 25
9 | COCCOc1ccc(-c2ccc(CC3CNCCO3)cc2-c2ccc(C#N)c(F)c2)cc1 (centres unmarked) [Example 94, 3-fluoro-2′-[4-(2-methoxyethoxy)phenyl]-5′-[(morpholin-2-yl)methyl]-[1,1′-biphenyl]-4-carbonitrile] | 25 to 100
10 | COCc1c(CN2[C@@H]3CC[C@H]2[C@@H](N)C3)cccc1-c1ccc(C#N)c(F)c1 (racemic) [Example 320, 3'-{[(1S,2S,4R)-2-amino-7-azabicyclo[2.2.1]heptan-7-yl]methyl}-3-fluoro-2'-(methoxymethyl)-[1,1'-biphenyl]-4-carbonitrile] | 100 to 1000
11 | CC1(C)CNCC(Cc2cccc(-c3ccc(C#N)cc3)c2-c2cncs2)O1 (centres unmarked) [Example 103, 3′-[(6,6-dimethylmorpholin-2-yl)methyl]-2′-(1,3-thiazol-5-yl)-[1,1′-biphenyl]-4-carbonitrile] | 10 to 25
12 | CNC1CCN(c2cccc(-c3ccc(C#N)c(F)c3)c2-c2ccns2)CC1 [Example 81, 3-fluoro-3'-[4-(methylamino)piperidin-1-yl]-2'-(1,2-thiazol-5-yl)-[1,1'-biphenyl]-4-carbonitrile] | 10 to 25
13 | N#Cc1ccc(-c2cc(C[C@H]3CNCCO3)ccc2N2CCC2)cc1F (single isomer, unassigned) [Example 54] | 100 to 1000
14 | COCc1ncc(-c2ccc(CC3CNCCO3)cc2-c2ccc(C#N)c(F)c2)o1 (centres unmarked) [Example 130, 3-fluoro-2′-[2-(methoxymethyl)-1,3-oxazol-5-yl]-5′-[(morpholin-2-yl)methyl]-[1,1′-biphenyl]-4-carbonitrile] | > 1000
15 | COCC1CN(c2ccc(CC3CNCCO3)cc2-c2ccc(C#N)c(F)c2)C1 (centres unmarked) [Example 55, 3-fluoro-2′-[3-(methoxymethyl)azetidin-1-yl]-5′-[(morpholin-2-yl)methyl]-[1,1′-biphenyl]-4-carbonitrile] | 100 to 1000
16 | N#Cc1ccc(-c2cccc(CN3C4CNCC3C4)c2C2CC2)cc1F [Example 274, 2'-cyclopropyl-3'-({3,6-diazabicyclo[3.1.1]heptan-6-yl}methyl)-3-fluoro-[1,1'-biphenyl]-4-carbonitrile] | 100 to 1000

The next lines start with the values.

Row | IC50 [nM] | SMILES
17 | > 1000 | N#Cc1ccc(-c2cccc(CN3CC(F)(F)[C@@]34CCNC4)c2Cl)cc1F [Example 337, 2'-chloro-3'-{[(4S)-3,3-difluoro-1,6-diazaspiro[3.4]octan-1-yl]methyl}-3-fluoro-[1,1'-biphenyl]-4-carbonitrile]
18 | > 1000 | COc1cnc(-c2ccc(CC3CNCCO3)cc2-c2ccc(C#N)c(F)c2)cn1 (centres unmarked) [Example 132, 3-fluoro-2′-(5-methoxypyrazin-2-yl)-5′-[(morpholin-2-yl)methyl]-[1,1′-biphenyl]-4-carbonitrile]
19 | < 10 | N#Cc1ccc(-c2cccc(CN3C[C@]4(N)CC[C@H]3C4)c2-c2cnco2)cc1F [Example 335, 3'-{[(1S,4S)-4-amino-2-azabicyclo[2.2.1]heptan-2-yl]methyl}-3-fluoro-2'-(1,3-oxazol-5-yl)-[1,1'-biphenyl]-4-carbonitrile]
20 | 10 to 25 | Cn1nc2ccc(-c3ccc(CN4C[C@@]5(N)CC[C@@H]4C5)cc3-c3ccc(C#N)c(F)c3)cc2c1Cl [Example 233, 5'-{[(1R,4R)-4-amino-2-azabicyclo[2.2.1]heptan-2-yl]methyl}-2'-(3-chloro-2-methyl-2H-indazol-5-yl)-3-fluoro-[1,1'-biphenyl]-4-carbonitrile]
21 | 10 to 25 | C[C@@]1(N)CCN(Cc2cccc(-c3ccc(C#N)c(F)c3)c2-c2ccns2)C1 [Example 242, 3'-{[(3R)-3-amino-3-methylpyrrolidin-1-yl]methyl}-3-fluoro-2'-(1,2-thiazol-5-yl)-[1,1'-biphenyl]-4-carbonitrile]
22 | 100 to 1000 | Cc1cc(CNCC2CCN(C)C2)c(Cl)c(-c2ccc(C#N)c(F)c2)c1 (centres unmarked) [Example 226, 2'-chloro-3-fluoro-5'-methyl-3'-({[(1-methylpyrrolidin-3-yl)methyl]amino}methyl)-[1,1'-biphenyl]-4-carbonitrile]
23 | > 1000 | N#Cc1ccc(-c2cc(CC3CNCCO3)ccc2C2CCOCC2)cc1F (centres unmarked) [Example 158, 3-fluoro-5′-[(morpholin-2-yl)methyl]-2′-(oxan-4-yl)-[1,1′-biphenyl]-4-carbonitrile]
24 | > 1000 | CCc1cc(CC2CNCCO2)cc(-c2ccc(C#N)cc2)c1Cl (centres unmarked) [Example 161, 2′-chloro-3′-ethyl-5′-[(morpholin-2-yl)methyl]-[1,1′-biphenyl]-4-carbonitrile]
25 | 10 to 25 | CC1(C)CN(Cc2cccc(-c3ccc(C#N)c(F)c3)c2-c2ccns2)CC1N (centres unmarked) [Example 198, 3'-[(4-amino-3,3-dimethylpyrrolidin-1-yl)methyl]-3-fluoro-2'-(1,2-thiazol-5-yl)-[1,1'-biphenyl]-4-carbonitrile]
26 | 25 to 100 | CN[C@H]1CCN(Cc2cccc(-c3ccc(C#N)c(F)c3)c2C2CC2)C1 [Example 211, 2'-cyclopropyl-3-fluoro-3'-{[(3S)-3-(methylamino)pyrrolidin-1-yl]methyl}-[1,1'-biphenyl]-4-carbonitrile]
